# Measured values from patent US9572787B2, “Inhibition of renal fibrosis” (Rhode Island Hospital, priority 2011, dated 2017).
# Experiments:
# NRK-49F cells = test: S3I-201 in cultured renal interstitial fibroblasts (immunoblot, qRT-PCR); type: cell-based, rat
# Experimental: Cell culture and treatments. NRK-49F cells were cultured in Dulbecco's modified eagle's medium (DMEM) (Sigma-Aldrich, St. Louis, Mo.) containing 10% fetal bovine serum (FBS), 0.5% penicillin and streptomycin in an atmosphere of 5% CO2 and 95% air at 37° C. Western blot analysis and Sirius red and immunofluorescent staining were carried out according to standard methods. Quantitative real-time PCR. Real time qRT-PCR amplifications were performed in 20 μl reactions. The amplification protocol was as follows: denaturation for 10 minutes and enzyme activation at 95° C., 40 cycles of 95° C.×10 sec, 59° C.×30 sec, and 72° C.×20 sec, followed by one step […] at 72° C. for 5 minutes. Relative mRNA abundance was determined from the ratios of specific mRNA to 18S ribosomal RNA measured in the same samples, and fold change was calculated relative to the group of sham-operated mice with vehicle treatment.
# obstructive kidney (UUO) = test: UUO model, daily S3I-201 treatment; type: in vivo, mouse; conditions: for STAT3 phosphorylation: 10 mg/kg i.p. daily
# Experimental: Unilateral […] obstruction (UUO) model and S3I-201 treatment. The UUO model was established in male C57 black mice that weighed 20-25 g (Jackson Laboratory, Bar Harbor, Me.) as described previously. The contralateral kidneys were used as controls. To examine the efficacy of S3I-201 in renal fibrosis after UUO injury, S3I-201 (10 mg/kg) in 50 μl of dimethyl sulfoxide (DMSO) was intraperitoneally administered to mice immediately after ureter ligation and then given daily for 6 or 13 days. Mice were randomized into 4 groups with 6-7 mice in each group as follows: (1) sham injury with DMSO as vehicle; (2) sham injury with S3I-201; (3) UUO injury with DMSO; (4) UUO injury with S3I-201.
# Western blot analysis and Sirius red and immunofluorescent staining were carried out according to standard methods.
# Quantitative real-time PCR. Real time qRT-PCR amplifications were performed in 20 μl reactions. The amplification protocol was as follows: denaturation for 10 minutes and enzyme activation at 95° C., 40 cycles of 95° C.×10 sec, 59° C.×30 sec, and 72° C.×20 sec, followed by one step […] at 72° C. for 5 minutes. Relative mRNA abundance was determined from the ratios of specific mRNA to 18S ribosomal RNA measured in the same samples, and fold change was calculated relative to the group of sham-operated mice with vehicle treatment.
# ELISA. Protein levels of TGF-β1, TNF-α, and IL-1β in kidney homogenates were determined using specific sandwich enzyme immunometric assay kits, ELISA Ready-SET-Go (eBioscience, Inc. San Diego, Calif.) as described previously. The results were normalized by total protein content in kidney homogenates.
# In situ TUNEL assays. Terminal deoxynucleotidyl transferase biotin-dUTP nick end-labeling (TUNEL) staining was used to detect DNA strand breaks using a detection kit, according to the instructions provided by the manufacturer. The number of TUNEL-positive nuclei per field was evaluated in five fields per section and five sections per kidney.
# [1] = dose- and time-dependent, 24 h dose series, 50 μM time course
structure (smiles),measurement,setting,value
Cc1ccc(S(=O)(=O)OCC(=O)Nc2ccc(C(=O)O)c(O)c2)cc1 [S3I-201],expression of p-STAT3,"NRK-49F cells; 100 μM, 3 h",complete inhibition
same,TGF-β1 mRNA expression,"NRK-49F cells; 5% FBS, 50 μM S3I-201, 6 h",significantly decreased
same,TβRII mRNA expression,"NRK-49F cells; 5% FBS, 50 μM S3I-201, 6 h",significantly decreased
same,TβRIII mRNA expression,"NRK-49F cells; 5% FBS, 50 μM S3I-201, 6 h",significantly decreased
same,expression of p-STAT1,"NRK-49F cells; 3 h, dose dependent",increased
same,STAT5 phosphorylation,"NRK-49F cells; 3 h, indicated concentrations",did not affect
same,expression of fibronectin,NRK-49F cells; [1],dramatically decreased
same,expression of α-SMA,NRK-49F cells; [1],dramatically decreased
same,apoptosis of interstitial cells (TUNEL),obstructive kidney (UUO); 10 mg/kg daily for 7 days,increased apoptosis
same,apoptosis of renal tubular cells (TUNEL),obstructive kidney (UUO); 10 mg/kg daily for 7 days,did not induce apoptosis
same,proliferation of interstitial cells (phospho-histone H3 Ser 10),obstructive kidney (UUO); 10 mg/kg daily for 7 days,decreased their proliferation
same,ICAM-1 mRNA expression,"obstructive kidney (UUO); 10 mg/kg daily, day 7",reduced
same,IL-1β mRNA expression,"obstructive kidney (UUO); 10 mg/kg daily, day 7",reduced
same,IL-1β protein (ELISA),"obstructive kidney (UUO); 10 mg/kg daily, day 7",significantly suppressed
same,Sirius red-positive areas,"obstructive kidney (UUO); 10 mg/kg daily, day 7",significantly reduced
same,TGF-β1 mRNA expression,"obstructive kidney (UUO); 10 mg/kg daily, day 7",reduced their levels
same,TGF-β1 protein (ELISA),"obstructive kidney (UUO); 10 mg/kg daily, day 7",decreased
same,TNF-α mRNA expression,"obstructive kidney (UUO); 10 mg/kg daily, day 7",reduced
same,TNF-α protein (ELISA),"obstructive kidney (UUO); 10 mg/kg daily, day 7",significantly suppressed
same,TβRI mRNA expression at the basal level,"obstructive kidney (UUO); 10 mg/kg daily, day 7",not affected
same,TβRII mRNA expression,"obstructive kidney (UUO); 10 mg/kg daily, day 7",reduced their levels
same,TβRIII mRNA basal level,"obstructive kidney (UUO); 10 mg/kg daily, day 7",reduced the basal level
same,UUO injury-induced MCP-1 mRNA expression,"obstructive kidney (UUO); 10 mg/kg daily, day 7",did not affect
same,UUO-induced collagen type 1 mRNA expression,"obstructive kidney (UUO); 10 mg/kg daily, day 7",attenuated this response
same,basal level of collagen type 1 expression in control kidneys,"obstructive kidney (UUO); 10 mg/kg daily, day 7",did not affect
same,basal level of α-SMA expression in control kidneys,"obstructive kidney (UUO); 10 mg/kg daily, day 7",did not affect
same,collagen type 1 expression in obstructive kidneys,"obstructive kidney (UUO); 10 mg/kg daily, day 7",decreased collagen type 1 to the basal level
same,"decrease in expression of ECM components (Sirius red, semi-quantitative)","obstructive kidney (UUO); 10 mg/kg daily, day 7",approximately 60%
same,expression of snail,"obstructive kidney (UUO); 10 mg/kg daily, day 7",did not affect
same,expression of β-catenin,"obstructive kidney (UUO); 10 mg/kg daily, day 7",did not affect
same,fibronectin expression (immunoblot densitometry),"obstructive kidney (UUO); 10 mg/kg daily, day 7",blocked
same,fibronectin expression (immunostaining),"obstructive kidney (UUO); 10 mg/kg daily, day 7",decreased its expression
same,leukocyte infiltration (naphthol AS-D chloroacetate esterase staining),"obstructive kidney (UUO); 10 mg/kg daily, day 7",reduced leukocyte infiltration to basal levels
same,α-SMA expression in obstructive kidneys,"obstructive kidney (UUO); 10 mg/kg daily, day 7",inhibited
same,total STAT3 expression,"obstructive kidney (UUO); 10 mg/kg daily, day 7 and day 14",not affected
same,collagen type 1 expression,"obstructive kidney (UUO); 10 mg/kg daily, day 14",decreased
same,α-SMA expression,"obstructive kidney (UUO); 10 mg/kg daily, day 14",decreased
same,STAT3 phosphorylation,obstructive kidney (UUO); day 7,largely suppressed
same,STAT3 phosphorylation,obstructive kidney (UUO); day 14,small inhibition
